Test results as given in PMC7849180 (Frontiers in Pharmacology, 2020).

Legend:
[1] = Food effect on plasma pharmacokinetics, 200 mg crossover; assay type: in vivo, human; conditions: for AUC0-t, geometric mean / AUC0-∞, geometric mean / Cmax, geometric mean / median Tmax: 200 mg
Protocol: For MAD cohorts, blood samples were collected at 0, 0.25, 0.5, 1, 1.5, 2, 3, 4, 5, 6, 8 and 12 h on day 1; 0 h on day 2, 3, 4, 6 and 7; 0, 0.25, 0.5, 1, 1.5, 2, 3, 4, 5, 6, 8, 12, 24, 36 and 48 h on day 10. In food effect cohort, blood samples were collected at 0, 0.25, 0.5, 1, 1.5, 2, 3, 4, 5, 6, 8, 12, 24, 36, 48, 72, 96 and 120 h in period one of group A; 0, 0.25, 0.5, 1, 1.5, 2, 3, 4, 5, 6, 8, 12, 24, 36 and 48 h in period two of group A and the two periods of group B. Blood samples were centrifuged at 3,000 rpm for 10 min at 2–8 °C and stored at -80 °C until liquid chromatography-mass spectrophotometry (LC-MS/MS) analysis. Urine and feces samples were collected in period one of group A of food effect cohort with the intervals 0, 0–6, 6–12, 12–24, 24–48, 48–72, 72–96, 96–120 and 0–120 h, respectively. […]
Statistical analysis was performed using SAS software, version 9.4 (SAS Institute Inc., United States). Descriptive statistics were used to summarize continuous variables as cases, means with standard deviations, medians, maximum and minimum. For categorical variables, frequencies and percentages were used. A regression power model, relating log-transformed Cmax and AUC parameters to log-transformed dose, was used to investigate dose proportionality. Food effect pharmacokinetic parameters were analyzed using the mixed effect model with period, sequence and treatment as fixed effects and subjects as the random effect. Logarithmic transformation of Cmax, AUC0-∞ and AUClast were performed to calculate the 90% confidence intervals (CIs) of the geometric mean ratio (GMR) between fasting and fed administration. If the calculated 90% CI values fall entirely within the range of 0.80–1.25, it is indicative of no significant food effect.

[2] = PK, single intragastric dose; assay type: in vivo, rats
Protocol: Suzhou Zelgen Biopharmaceuticals Co., Ltd. Jaktinib Hydrochloride Tablets Chemical Drug Class 1 New Drug […]
Gender Tma x Cma x AUC0-t AUC0-∞ MRT t1/2 […]
Pharmacokinetic Study of Single-Dose Intragastric Administration in […]
After a single intragastric administration of 15.3, 30.5 and 61 mg/kg of ZG0128 […]
drug in three dose groups were 5.74, 8.33 and 12.4 μg/mL, respectively. […]
ZG0245 was lower than the proportional increase in dose, the increase in the AUC0-t of ZG0163 was directly proportional to the increase in dose, and the increase in the AUC0-t of the metabolite ZG0245 was slightly higher than the proportional increase in dose. Based on the average value of AUC0-t, the absolute bioavailability of the drug in rats receiving a single intragastric administration of 15.3 mg/kg of […] was 40.0%. […]

With Jaktinib the “Cmax, geometric mean (CV%)” value ([1]; 200 mg fasted) was 237.98 (69.0) ng/ml, the “Tmax, median (min–max)” value ([1]; 200 mg fasted) was 2.00 (0.50–5.00) h and the “Cmax, geometric mean (CV%)” value ([1]; 200 mg fed) was 542.35 (32.1) ng/ml. The “Tmax, median (min–max)” value ([1]; 200 mg fed) was 4.00 (3.00–5.00) h, the “AUC0-t, geometric mean” value ([1]; fasted (n = 12)) was 1.56948 µg·h/mL and the “AUC0-∞, geometric mean” value ([1]; fasted (n = 12)) was 1.61635 µg·h/mL. The “Cmax, geometric mean” value ([1]; fasted (n = 12)) was 0.23798 µg/mL, the “median Tmax” value ([1]; fasted state) was 2 h and the “AUC0-t, geometric mean” value ([1]; fed (n = 12)) was 4.1749 µg·h/mL. The “AUC0-∞, geometric mean” value ([1]; fed (n = 12)) was 4.20738 µg·h/mL, the “Cmax, geometric mean” value ([1]; fed (n = 12)) was 0.54235 µg/mL and the “median Tmax” value ([1]; fed state) was 4 h. For the same substance, the “AUC0-t, geometric mean ratio” value ([1]; fed vs fasted) was 2.66, the “AUC0-∞, geometric mean ratio” value ([1]; fed vs fasted) was 2.60 and the “Cmax, geometric mean ratio” value ([1]; fed vs fasted) was 2.28. For the same substance, the AUC0-t ([2]; 15.3 mg/kg ZG0128, Female) was 19.4 ± 7.5 µg·h/mL, the “AUC0-∞” value ([2]; 15.3 mg/kg ZG0128, Female) was 19.4 ± 7.5 µg·h/mL and the Cmax ([2]; 15.3 mg/kg ZG0128, Female) was 4.82 ± 1.25 µg/mL. The MRT ([2]; 15.3 mg/kg ZG0128, Female) was 2.82 ± 0.60 h, the Tmax ([2]; 15.3 mg/kg ZG0128, Female) was 0.5 (0.5-1.0) h and the t1/2 ([2]; 15.3 mg/kg ZG0128, Female) was 0.93 ± 0.26 h. The AUC0-t ([2]; 15.3 mg/kg ZG0128, Male) was 24.5 ± 11.3 µg·h/mL, the “AUC0-∞” value ([2]; 15.3 mg/kg ZG0128, Male) was 24.6 ± 11.3 µg·h/mL and the Cmax ([2]; 15.3 mg/kg ZG0128, Male) was 6.66 ± 2.13 µg/mL. The MRT ([2]; 15.3 mg/kg ZG0128, Male) was 2.45 ± 0.29 h, the Tmax ([2]; 15.3 mg/kg ZG0128, Male) was 1.0 (0.5-2.0) h and the t1/2 ([2]; 15.3 mg/kg ZG0128, Male) was 0.84 ± 0.20 h. For the same substance, the AUC0-t ([2]; 15.3 mg/kg ZG0128, Overall) was 21.9 µg·h/mL, the “AUC0-∞” value ([2]; 15.3 mg/kg ZG0128, Overall) was 22.0 ± 9.0 µg·h/mL and the Cmax ([2]; 15.3 mg/kg ZG0128, Overall) was 5.74 µg/mL. For the same substance, the MRT ([2]; 15.3 mg/kg ZG0128, Overall) was 2.63 ± 0.47 h, the Tmax ([2]; 15.3 mg/kg ZG0128, Overall) was 0.75 (0.5-2.0) h and the t1/2 ([2]; 15.3 mg/kg ZG0128, Overall) was 0.89 ± 0.21 h. The absolute bioavailability ([2]; 15.3 mg/kg, by AUC0-t) was 40.0%, the AUC0-t ([2]; 30.5 mg/kg ZG0128, Female) was 39.9 ± 13.6 µg·h/mL and the “AUC0-∞” value ([2]; 30.5 mg/kg ZG0128, Female) was 40.2 ± 13.2 µg·h/mL. The Cmax ([2]; 30.5 mg/kg ZG0128, Female) was 9.68 ± 3.40 µg/mL, the MRT ([2]; 30.5 mg/kg ZG0128, Female) was 3.46 ± 0.75 h and the Tmax ([2]; 30.5 mg/kg ZG0128, Female) was 2.0 (2.0) h. For the same substance, the t1/2 ([2]; 30.5 mg/kg ZG0128, Female) was 2.07 ± 2.24 h, the AUC0-t ([2]; 30.5 mg/kg ZG0128, Male) was 41.6 ± 19.7 µg·h/mL and the “AUC0-∞” value ([2]; 30.5 mg/kg ZG0128, Male) was 43.2 ± 21.9 µg·h/mL. The Cmax ([2]; 30.5 mg/kg ZG0128, Male) was 6.97 ± 1.15 µg/mL, the MRT ([2]; 30.5 mg/kg ZG0128, Male) was 3.95 ± 1.68 h and the Tmax ([2]; 30.5 mg/kg ZG0128, Male) was 1.0 (1.0-2.0) h. The t1/2 ([2]; 30.5 mg/kg ZG0128, Male) was 1.58 ± 0.75 h, the AUC0-t ([2]; 30.5 mg/kg ZG0128, Overall) was 40.8 µg·h/mL and the “AUC0-∞” value ([2]; 30.5 mg/kg ZG0128, Overall) was 41.7 ± 16.2 µg·h/mL. The Cmax ([2]; 30.5 mg/kg ZG0128, Overall) was 8.33 µg/mL, the MRT ([2]; 30.5 mg/kg ZG0128, Overall) was 3.70 ± 1.19 h and the Tmax ([2]; 30.5 mg/kg ZG0128, Overall) was 2.0 (1.0-2.0) h. For the same substance, the t1/2 ([2]; 30.5 mg/kg ZG0128, Overall) was 1.82 ± 1.52 h, the AUC0-t ([2]; 61 mg/kg ZG0128, Female) was 82.7 ± 31.0 µg·h/mL and the “AUC0-∞” value ([2]; 61 mg/kg ZG0128, Female) was 87.3 ± 31.0 µg·h/mL. The Cmax ([2]; 61 mg/kg ZG0128, Female) was 12.1 ± 2.6 µg/mL, the MRT ([2]; 61 mg/kg ZG0128, Female) was 4.87 ± 1.22 h and the Tmax ([2]; 61 mg/kg ZG0128, Female) was 4.0 (1.0-6.0) h. For the same substance, the t1/2 ([2]; 61 mg/kg ZG0128, Female) was 2.14 ± 0.31 h, the AUC0-t ([2]; 61 mg/kg ZG0128, Male) was 124 ± 58 µg·h/mL and the “AUC0-∞” value ([2]; 61 mg/kg ZG0128, Male) was 124 ± 58 µg·h/mL. For the same substance, the Cmax ([2]; 61 mg/kg ZG0128, Male) was 12.8 ± 1.7 µg/mL, the MRT ([2]; 61 mg/kg ZG0128, Male) was 6.20 ± 2.52 h and the Tmax ([2]; 61 mg/kg ZG0128, Male) was 2.0 (2.0-8.0) h. For the same substance, the t1/2 ([2]; 61 mg/kg ZG0128, Male) was 1.56 ± 0.59 h, the AUC0-t ([2]; 61 mg/kg ZG0128, Overall) was 103 µg·h/mL and the “AUC0-∞” value ([2]; 61 mg/kg ZG0128, Overall) was 106 ± 46 µg·h/mL. For the same substance, the Cmax ([2]; 61 mg/kg ZG0128, Overall) was 12.4 µg/mL, the MRT ([2]; 61 mg/kg ZG0128, Overall) was 5.54 ± 1.92 h and the Tmax ([2]; 61 mg/kg ZG0128, Overall) was 3.0 (1.0-8.0) h. For the same substance, the t1/2 ([2]; 61 mg/kg ZG0128, Overall) was 1.85 ± 0.53 h, the “Tmax, range over doses” value ([2]; 15.3, 30.5 and 61 mg/kg ZG0128) was 0.75 to 3.0 h and the “plasma elimination half-life t1/2, range over doses” value ([2]; 15.3, 30.5 and 61 mg/kg ZG0128) was 0.89 to 1.85 h.
